Laboratory results: patent US20170216421A1, “MANUFACTURING OF MULTI-DOSE INJECTION READY DENDRITIC CELL VACCINES, COMBINATION THERAPIES FOR BLOCKING HER2 AND HER3, AND ESTROGEN RECEPTOR POSITIVE HER2 BREAST RECEPTOR POSITIVE HER2 BREAST CANCER THERAPY” (THE TRUSTEES OF THE UNIVERSITY OF PENNSYLVANIA, priority 2015, published 2017)

Key:
[1] = system: MCF7 (HER2^neg 2+/ER^pos); assay: Alamar Blue metabolic activity assay; type: cell-based, human; conditions: 72 hours
Method: (§1) Breast cancer cell lines, SKBR3 (HER2^pos/ER^neg) and MCF7 (HER2^neg 2+/ER^pos), were treated with Th1 cytokines (IFNγ and TNFα), a tamoxifen metabolite (4-hydroxytamoxifen, “4HT”), or both for 72 hours. Metabolic activity was measured via Alamar Blue assay.

SKBR3 (HER2^pos/ER^neg) = assay: Alamar Blue metabolic activity assay; type: cell-based, human; conditions: 72 hours
Method: as §1

[2] = system: BRAF^V600EPTEN^−/− melanoma; assay: Transplantable melanoma model: tumor growth and survival; type: in vivo, mice; conditions: administered alone
Method: A transplantable BRAF^V600EPTEN^−/− melanoma model was developed in the C57Bl/6 background. DC1 were generated from bone marrow precursors using Flt3, IL-6, GM-CSF, IL-4, CpG and LPS, and pulsed with class I BRAF^V600E peptide. In addition to untreated and ovalbumin-DC1 controls, BRAF^V600E-DC1 (2× weekly injections) and PLX were administered alone or in designated combinations to tumor-bearing mice (n=10 each). Tumor growth and survival were determined.

Row | Compound | anti-tumor activity / metabolic activity [1] | anti-tumor activity / metabolic activity (SKBR3 (HER2^pos/ER^neg)) | median survival [2] [days]
1 | 4-hydroxytamoxifen [4HT] | did not increase anti-tumor activity | not in response to anti-estrogen treatment | 
2 | CCCS(=O)(=O)Nc1ccc(F)c(C(=O)c2c[nH]c3ncc(-c4ccc(Cl)cc4)cc23)c1F [PLX, vemurafenib] |  |  | 43.5
